The values that follow come from patent publication US9486456B2, “Treatment of esophageal motility disorder using sepiapterin, tetrahydrobiopterin and derivatives thereof” (The Board of Regents of the University of Texas System, priority 2006, dated 2016).

One assay has as its system nNOSalpha protein. Kind of assay: nNOSalpha protein expression, Western blot. The following applies: for nNOSalpha protein level: diabetic female rat gastric antrum, sepiapterin 10 days or BH4 2 weeks, 20 mg kg^−1 per day. It is filed as in vivo, rat. The protocol:
nNOSa protein was quantified in gastric antrum homogenates from all groups using standard western blot analysis, as described in our previous study (94). Proteins were measured by Bio-Rad protein assay (Bio-Rad, Hercules, Calif.) and 30 μg protein was separated by 6% SDS polyacrylamide gel electrophoresis (SDS-PAGE). The membrane was immunoblotted with polyclonal nNOSa primary antibody (Zymed Laboratories Inc., CA) and anti-rabbit IgG conjugated with horseradish peroxidase (Sigma Chemical, St. Louis, Mo.) as secondary antibody. Binding of antibodies to the blots was detected with enhanced chemiluminescence system (ECL, Amersham Pharmacia Biotech, Piscataway, N.J.) following manufacturer's instructions. Stripped blots were re-probed with g-tubulin specific polyclonal antibodies (Sigma Chemical, St. Louis, Mo.) to enable normalization of signals between samples. Band intensities were analyzed using Bio-Rad Gel Doc (Bio-Rad, Hercules, Calif.).

For the next assay, the system named is female rats. The assay can be described thus: Solid gastric emptying studies. It is filed as in vivo, rat. The following applies: for Effect on gastric emptying for solids: OVX female rats, 21 day release pellets E2 2 mg or P4 20 mg per kg. The protocol: In addition, using the similar gastric emptying protocol, accelerated gastric emptying was observed instead of delayed gastric emptying in spontaneous diabetic female but not in male diabetic animals (101).
According to the protocol, animals were fasted over night (provide water). On the next day, known amount of food was fed to the animals for 3 h. At the end of 3 h collected the remaining food from the cage and calculated the amount of food intake. Then fast the animals for 4 hrs without food and water. At the end of fast, animals were euthanized, collected the gastric tissue and measured the weight of the whole stomach. Then removed the food contents by opening the stomach and measured the empty stomach weight. The rate of gastric emptying was calculated according to the following equation: gastric emptying (% in 4 h)=(1−gastric content food intake^−1)×100.

The next assay concerns nNOSalpha. Kind of assay: nNOSalpha dimerization, LT-SDS-PAGE, after in vivo treatment. The settings on record: for nNOSalpha dimmer/monomer level: diabetic female rat gastric antrum, sepiapterin 10 days or BH4 2 weeks, 20 mg kg^−1 per day. The arrangement: species or system rat. On the procedure:
Levels of nNOSa monomer and dimer were quantified by western blotting via Low temperature (LT)-PAGE in gastric antrum homogenates as described previously (94). LT-SDS-PAGE was performed on ice. The low-temperature process was used to identify nNOS dimers and monomers in the native state as low temperature is known to prevent monomerization of nNOS dimmers. For the low-temperature processing, 30 μg of protein in standard Laemmli buffer at 4° C. was used for SDS-PAGE. The mixture was incubated at 0° C. for 30 min before LT-SDS-PAGE using a 6% separating gel. All gels and buffers were pre-equilibrated to 4° C. prior to electrophoresis and the buffer tank placed in an ice-bath during electrophoresis to maintain the gel temperature below 15° C. A polyclonal antibody specific to nNOSa (Zymed Laboratories) and anti-rabbit IgG conjugated with horseradish peroxidase (Sigma Chemical, St. Louis, Mo.) were used as the primary and secondary antibodies, respectively.

Assay [1] relates to gastric antrum muscle strip. The assay can be described thus: In vitro NO release from gastric antrum strips (total nitrite). Also noted: species or system rat. The following applies: 48 h incubation. The protocol: Animals from control groups were killed by CO2 asphyxiation, the abdominal cavity opened, and the stomach dissected and transferred in chilled oxygenated Krebs bicarbonate solution of the following composition (in mmol): 118.0 NaCl, 4.7 KCl, 25.0 NaHCO3, 1.5 CaCl2, 1.2 MgSO4, 1.2 KH2PO4, and 11.5 glucose (pH 7.4). Antrum tissue was harvested and cut into mucosa-free strips and were cultured for 48 h (37° C., 5% CO2) in […] of phenol red-free DMEM supplemented with NB27 (2%) and antibiotics (1%) in the presence of normal glucose (control), control+MTX (100 μM), control+MTX+SEP (100 μM, 100 μM). On completion of incubation, DMEM ([…]) was collected and stored at −80° C. for analysis of NO released in medium during incubation period. NO released in the medium was analyzed as total nitrite (metabolic byproduct of NO) following the protocol supplied with a commercially available kit (EMD Chemicals, Gibbstown, N.J.).

The test system of a further assay is gastric muscle strips. The assay can be described thus: EFS-induced nitrergic (NANC) relaxation of gastric muscle strips after in vivo treatment (organ bath). The arrangement: species or system rat. The protocol: Electric field stimulation (EFS)-induced NANC relaxation was studied in circular gastric antrum muscle strips. Muscle strips were tied with silk thread at both ends and were mounted in 10-ml water-jacketed organ baths containing Krebs buffer (11 mM glucose) at 37° C. and continuously bubbled with 95% O2-5% CO2 (Radnoti Glass Technology, Monrovia, Calif.). Tension for each muscle strip was monitored with an isometric force transducer and analyzed by a digital recording system (Biopac Systems, Santa Barbara, Calif.). A passive tension equal to 2 g was applied on each strip in the 1 h equilibration period through an incremental increase (0.5 g, four times, at 15 min interval). Gastric antrum muscle strips were exposed to atropine, phentolamine and propranolol (10 μmol each) in bath solution for 1 h to block cholinergic and adrenergic responses. 5-hydroxytryptamine (5-HT; 100 μM) pre-contracted strips were exposed to EFS (90 V, 2 Hz, 1-ms pulse for duration of 1 min) to elicit NANC relaxation.
To investigate the in vivo effect of methotrexate (MTX) on EFS induced nitrergic relaxation; a group of animals were supplemented with MTX (inhibitor of dihydro folate reductase, DHFR) 3.75 mg kg^−1 body wt. per twice a day for 4 days. Gastric strips from control animals and MTX treated animals were incubated in organ bath and nitrergic relaxation was measured by EFS. At the end of each experiment, the muscle strip was blotted dry with filter paper and weighed. Comparisons between groups were performed by measuring the area under the curve (AUC mg^−1 tissue) of the EFS-induced relaxation (AUCR) for 1 min and the baseline for 1 min (AUCB) according to the formula (AUCR−AUCB) weight of tissue (mg)^−1=AUC mg of tissue^−1.

Assay [2] can be described thus: Body weight in control and STZ-diabetic female rats. In kind it is in vivo, rat. The settings on record: STZ-diabetic female rats + SEP 20 mg kg^−1 day^−1, 10 days. The protocol: (§1) Diabetes was induced in overnight fasted animals by a single intraperitoneal injection of streptozotocin (STZ, 55 mg kg^−1) (Sigma Chemical, St. Louis, Mo.) prepared in 9 mmol citrate buffer, pH 4.0. Control animals were injected with the vehicle (9 mmol citrate buffer, pH 4.0) (94). Blood glucose levels were examined in overnight fasted animals, 48 h post STZ injection. […] Blood glucose levels in vehicle-treated overnight fasting rats ranged between 80-95 mg dl^−1. Both control and diabetic female rats were selected during the diestrus phase of the estrous cycle using vaginal smear testing method [by measuring vaginal cytology (90-100% of leucocytes) under microscope] for further experiments. As reported earlier, 60-70% of diabetic rats show a persistent diestrous stage of the estrous cycle (data not shown) (95-96).
(§2) At the end of 7th week of diabetes induction, animals were divided into four groups, i.e. control female rats (C), diabetic female rats (DB), BH4 supplemented diabetic female rats (DB+BH4) and SEP supplemented diabetic female rats (DB+SEP). DB+BH4 were provided with BH4 pellets (20 mg kg^−1 body wt day^−1) for next 2 weeks. […] Tissue samples were snap frozen in liquid nitrogen and stored at −80° C. until analyzed. BH4 or SEP-pellets used in this study were prepared by compressing (Schircks Laboratories, Switzerland) with rodent chow and stored at −20° C. until used. […]

Assay [3] can be described thus: Fasting blood glucose in control and STZ-diabetic female rats. It is filed as in vivo, rat. On the procedure: as §1, §2
For another assay, the system named is gastric tissues. The assay can be described thus: Nitrergic relaxation of gastric tissues after in vitro incubation (organ bath). The arrangement: species or system rat.
The next assay deals with rats. The assay can be described thus: Intragastric (antrum) pressure by ambulatory telemetry. In kind it is in vivo, rat. The settings on record: L-NAME 200 mg/day/kg s.c. osmotic mini-pump, 4 days. On the procedure: The intragastric antrum pressure (IGAP) was measured in normal and diabetic male (FIG. 3A) and female (FIG. 3B) rats. The transducer pressure catheter was introduced into the gastric antrum cavity 5 mm proximal to the pylorus to record IGAP (mmHg×sec). After recording the baseline IGAP, N^G-nitro-L-arginine methyl ester (L-NAME, 200 mg/day/kg body weight (BW)/rat) was administered subcutaneously in the same rats by osmotic mini-pumps (Alza, Palo Alto, Calif., model 2ML1 with a pumping rate of 10 μl/hour) for 4 days. All subsequent studies were performed 1 week after surgery in overnight fasted rats that were awake and in a free-moving state. Pressure recordings were performed at least 2-3 hours between 9-12 am. Bilateral ovariectomy was performed as reported previously. Dietary BH4 (25 mg/day/kg body weight (BE)/rat). *p<0.05. ANOVA.
Intragastric pressure (IGP) was measured using ambulatory telemetric device. […]
Dietary BH4 (25 mg/kg b.w/rat/day) was supplemented for female rats for 12 weeks beginning from day 2 after diabetic induction. Intragastric pressure (IGP) was measured in female control, diabetic and diabetic+BH4 treated rats. […] In another experiment, diabetic females were treated for 3 weeks with BH4 and nNOS alpha protein expression was measured in treated and untreated gastric tissues.

Where [4] appears, read: healthy female rats, MTX 3.75 mg kg^−1 i.p. twice a day, 4 days.
Where [5] appears, read: diabetic female rats + dietary sepiapterin 20 mg kg^−1, 10 days.

Read-outs that look alike come from different tables or passages of the source.

For the compound `C[C@]12CC[C@@H]3c4ccc(O)cc4CC[C@H]3[C@@H]1CC[C@@H]2O` [E2, estradiol-17beta], the “Effect on reduced nNOSalpha protein expression” value in the assay on nNOSalpha protein (diabetic female rat gastric tissues, E2 2 mg/kg 21 day pellet) was “significantly restored”. In addition, the “Effect on gastric emptying for solids” value with female rats was “significantly delayed”. For the same compound, the “Effect on delayed solid gastric emptying” value with female rats (diabetic female rats, E2 2 mg/kg, 3 weeks) is “significantly restored”.

As to `CN(Cc1cnc2nc(N)nc(N)c2n1)c1ccc(C(=O)N[C@@H](CCC(=O)O)C(=O)O)cc1` [MTX, methotrexate], the nNOSalpha dimer/monomer ratio in the assay with nNOSalpha (female rat gastric antrum, MTX 3.75 mg kg^−1 twice a day, 4 days) is given as 0.2±0.04. The compound further yielded an NO release in [1] (MTX 100 μM) of 0.73±0.15. In the assay on gastric muscle strips (setting [4]), the “nitrergic relaxation, antrum, EFS 2 Hz” value is −0.08±0.04 AUC mg^−1 tissue; the “nitrergic relaxation, fundus, EFS 2 Hz” value is recorded as −0.17±0.076 AUC mg^−1 tissue; the “nitrergic relaxation, pylorus, EFS 2 Hz” value is −0.13±0.05 AUC mg^−1 tissue.

For `C[C@H](O)C(=O)C1=Nc2c(nc(N)[nH]c2=O)NC1` [sepiapterin], the “Change in nNOSalpha protein expression” value in the assay with nNOSalpha protein (control female rat gastric antrum, BH4 or sepiapterin) is on record as “no change”. For the same compound, the nNOSalpha protein level in the assay on nNOSalpha protein turned out to be 0.88±0.15. Besides, the “Body Weight” value in [2] and in [2] (listed as SEP) was 188 ± 4.3 g throughout. Further, the nNOSalpha dimmer/monomer level in the assay on nNOSalpha is given as 0.64±0.07. Moreover, in [3] (STZ-diabetic female rats + SEP, fasting), the “Blood Glucose” value came to 494.5 ± 13.96 mg/dL. The “Effect on blood glucose levels” value in assay [3] (both control and diabetic female rats) is “unchanged”. Further, the NO release in [1] (MTX 100 μM + SEP 100 μM) was determined as 1.02±0.19. Further, the “nitrergic relaxation, gastric antrum, EFS 2 Hz” value in the assay on gastric muscle strips (control female rats + sepiapterin) is reported as −0.51±0.06 AUC mg^−1 tissue; in the assay on gastric muscle strips (setting [5]), −0.35±0.03 AUC mg^−1 tissue. Further, the “solid gastric emptying (% in 4 h)” value in the assay on female rats (control female rats + dietary sepiapterin 20 mg kg^−1, 10 days) was determined as 74±4 % in 4 h; in the assay on female rats (setting [5]) it was 67.0±8.2 % in 4 h.

In the case of `NC1=N[C@H](O)[C@H]2[C@H]3O[C@]4(O)O[C@@H]([C@@H](O)[C@@]2(N1)[C@@H]4O)[C@]3(O)CO` [TTX, tetrodotoxin], the “Effect on nitrergic relaxation” value in the assay on gastric tissues is on record as “abolished”.

Regarding `C[C@H](O)[C@H](O)[C@H]1CNc2nc(N)[nH]c(=O)c2N1` [tetrahydrobiopterin], the nNOSalpha protein level with nNOSalpha protein is 0.42±0.05. The nNOSalpha dimmer/monomer level with nNOSalpha came out at 0.36±0.11.

For `CC(=O)[C@H]1CC[C@H]2[C@@H]3CCC4=CC(=O)CC[C@]4(C)[C@H]3CC[C@]12C` [P4, progesterone], the “Effect on gastric emptying for solids” value in the assay on female rats was “not”.

In the case of `COC(=O)[C@@H](N)CCCNC(=N)N[N+](=O)[O-]` [L-NAME, N^G-nitro-L-arginine methyl ester], in the assay on gastric tissues (preincubation L-NAME 10^−4M, FC and FD groups, 2 Hz), the “Effect on nitrergic relaxation” value is reported as “significant inhibition”. The “Effect on IGAP” value in the assay with rats (female rats) is “significantly elevated”; with rats (male rats) it was “decreased”.
